# Results taken from patent US11986540B2, “Compositions including pafolacianine for the identification of malignant lesions” (ON TARGET LABORATORIES, LLC., priority 2022, dated 2024).
# Like-named read-outs stand apart in the source and are kept apart here.
# Columns and labels:
# [1] = Phase 1a pharmacokinetics in healthy volunteers, single IV administration; format: in vivo, human; conditions: for AUC(0-t) / Tmax / AUC(0-inf) / clearance / Cmax / half-life / Vd: human, plasma, intravenous
# Text: A total of 73 potentially eligible healthy volunteers gave written acknowledgement of informed consent to participate in a Phase 1a study to assess the safety and pharmacokinetics of pafolacianine versus placebo. Fifty-four were found suitable for participation, of which 30 were enrolled in the study. Twenty-four subjects were white, 1 subject was Black/African-American, 1 was Asian, 1 was mixed race and 3 were of another race.
# The pharmacokinetic (PK) analysis population was defined as all subjects who were randomized and received study treatment. Of note, the drug infusion was stopped prematurely in 1 subject, and interrupted in another subject. The pharmacokinetics of pafolacianine following single IV administration of 0.025, 0.05, 0.1, or 0.2 mg/kg was determined using non-compartmental analysis; the key PK parameters are summarized in Table 7.
# [2] = Single IV dose toxicokinetics in dogs; format: in vivo; conditions: for AUC(0-t) / C0: dog, in vivo
# Experimental: Following a single IV administration of pafolacianine to male and female dogs, systemic exposure (C0, AUClast) to pafolacianine appeared similar between males and females at all dose levels (Table 3). Similar to rats, dog AUClast values were calculated from a range of concentration-time data with Tlast values varying from 5 minutes to 4 hours. In addition, there were limited dogs with reportable TK at 0.9 mg/kg (N=1-2). As a consequence, dose proportionality was not assessed for dogs. Terminal data were generally sparse (i.e., 2 or fewer measurable concentrations in the terminal phase, (FIG. 4). Similar to rat, parameters dependent on accurate determination of the terminal phase (AUCinf, T1/2, CL, Vz) were not reported.
# [3] = Embryo-fetal development study in rats; format: in vivo
# Experimental: (§1) Pafolacianine was intravenously administered at doses of, during the period of organogenesis namely, 0.015, 0.15, and 1.5 mg/kg/day from gestational day (GD) 6 to GD17 in rats (human equivalent doses (HEDs) of 0.002, 0.024 and 0.242 mg/kg/day) and 0.3, 1, and 3 mg/kg/day from GD7 to GD20 in rabbits (HEDs of 0.097, 0.323 and 0.968 mg/kg/day). […] No-Observed-Adverse-Effect-Levels were 1.5 mg/kg/day in rats and 3 mg/kg/day in rabbits.
# [4] = Embryo-fetal development study in rabbits; format: in vivo
# Experimental: as §1
# [5] = dose escalated 8-fold (0.025 to 0.2 mg/kg)
# [6] = 0.025 mg/kg, in 20 ml 0.9% NaCl, 10- and 60-min infusion
# [7] = 0.025 mg/kg, in 220 ml 5% dextrose, 60-min infusion
# [8] = 0.05 mg/kg, in 220 ml 5% dextrose, 60-min infusion
# [9] = 0.1 mg/kg, in 220 ml 5% dextrose, 60-min infusion
# [10] = 0.2 mg/kg, in 220 ml 5% dextrose, 60-min infusion
# [11] = 0.2 mg/kg, with pre-treatment of antihistamine (clemastine)
# [12] = female dogs, 0.9 mg/kg single IV, Study Day 0, N = 1
# [13] = female dogs, 9.3 mg/kg single IV, Study Day 0
# [14] = female dogs, 13.9 mg/kg single IV, Study Day 0
# [15] = male dogs, 0.9 mg/kg single IV, Study Day 0, N = 2
# [16] = male dogs, 9.3 mg/kg single IV, Study Day 0
# [17] = male dogs, 13.9 mg/kg single IV, Study Day 0
smiles,measurement,setting,value
CC1(C)C(=CC=C2CCCC(C=CC3=[N+](CCCCS(=O)(=O)[O-])c4ccc(S(=O)(=O)O)cc4C3(C)C)=C2Oc2ccc(CC(NC(=O)c3ccc(NCc4cnc5nc(N)[nH]c(=O)c5n4)cc3)C(=O)O)cc2)N(CCCCS(=O)(=O)O)c2ccc(S(=O)(=O)O)cc21 (stereo not drawn) [pafolacianine],increase in AUClast,[1]; [5],~22 fold
same,increase in Cmax,[1]; [5],~12 fold
same,AUC(0-t),[1]; [6],63.4 ng·h/mL
same,Tmax,[1]; [6],0.75 h
same,AUC(0-inf),"[1]; 0.025 mg/kg, in 20 ml 0.9% NaCl, 10- and 60-min infusion, read-out: AUC0-inf",66.4 ng·h/mL
same,clearance,"[1]; 0.025 mg/kg, in 20 ml 0.9% NaCl, 10- and 60-min infusion, read-out: CL (converted)",443 mL/min
same,Cmax,"[1]; 0.025 mg/kg, in 20 ml 0.9% NaCl, 10- and 60-min infusion, read-out: Cmax",93.3 ng/mL
same,half-life,"[1]; 0.025 mg/kg, in 20 ml 0.9% NaCl, 10- and 60-min infusion, read-out: T1/2 (converted)",0.416 h
same,Vd,"[1]; 0.025 mg/kg, in 20 ml 0.9% NaCl, 10- and 60-min infusion, read-out: Vz",15.9 L
same,AUC(0-t),[1]; [7],61.6 ng·h/mL
same,Tmax,[1]; [7],0.95 h
same,AUC(0-inf),"[1]; 0.025 mg/kg, in 220 ml 5% dextrose, 60-min infusion, read-out: AUC0-inf",63.6 ng·h/mL
same,clearance,"[1]; 0.025 mg/kg, in 220 ml 5% dextrose, 60-min infusion, read-out: CL (converted)",477 mL/min
same,Cmax,"[1]; 0.025 mg/kg, in 220 ml 5% dextrose, 60-min infusion, read-out: Cmax",59.1 ng/mL
same,half-life,"[1]; 0.025 mg/kg, in 220 ml 5% dextrose, 60-min infusion, read-out: T1/2 (converted)",0.438 h
same,Vd,"[1]; 0.025 mg/kg, in 220 ml 5% dextrose, 60-min infusion, read-out: Vz",17.1 L
same,AUC(0-inf),"[1]; 0.025 mg/kg, read-out: area under the plasma concentration-time curve to infinity (AUCinf)",63.6 ± 12.6 ng·h/mL
same,half-life,"[1]; 0.025 mg/kg, read-out: elimination half-life (converted)",0.44 ± 0.23 h
same,Cmax,"[1]; 0.025 mg/kg, read-out: mean maximum plasma concentration (Cmax)",59.1 ± 5.94 ng/mL
same,clearance,"[1]; 0.025 mg/kg, read-out: mean plasma clearance (converted)",477 mL/min
same,AUC(0-t),[1]; [8],250 ng·h/mL
same,Tmax,[1]; [8],1.03 h
same,AUC(0-inf),"[1]; 0.05 mg/kg, in 220 ml 5% dextrose, 60-min infusion, read-out: AUC0-inf",258 ng·h/mL
same,clearance,"[1]; 0.05 mg/kg, in 220 ml 5% dextrose, 60-min infusion, read-out: CL (converted)",245 mL/min
same,Cmax,"[1]; 0.05 mg/kg, in 220 ml 5% dextrose, 60-min infusion, read-out: Cmax",184 ng/mL
same,half-life,"[1]; 0.05 mg/kg, in 220 ml 5% dextrose, 60-min infusion, read-out: T1/2 (converted)",0.931 h
same,Vd,"[1]; 0.05 mg/kg, in 220 ml 5% dextrose, 60-min infusion, read-out: Vz",19.2 L
same,AUC(0-t),[1]; [9],785 ng·h/mL
same,Tmax,[1]; [9],1.02 h
same,AUC(0-inf),"[1]; 0.1 mg/kg, in 220 ml 5% dextrose, 60-min infusion, read-out: AUC0-inf",799 ng·h/mL
same,clearance,"[1]; 0.1 mg/kg, in 220 ml 5% dextrose, 60-min infusion, read-out: CL (converted)",161 mL/min
same,Cmax,"[1]; 0.1 mg/kg, in 220 ml 5% dextrose, 60-min infusion, read-out: Cmax",450 ng/mL
same,half-life,"[1]; 0.1 mg/kg, in 220 ml 5% dextrose, 60-min infusion, read-out: T1/2 (converted)",1.64 h
same,Vd,"[1]; 0.1 mg/kg, in 220 ml 5% dextrose, 60-min infusion, read-out: Vz",22.2 L
same,AUC(0-t),[1]; [10],1310 ng·h/mL
same,Tmax,[1]; [10],1.09 h
same,AUC(0-inf),"[1]; 0.2 mg/kg, in 220 ml 5% dextrose, 60-min infusion, read-out: AUC0-inf",1340 ng·h/mL
same,clearance,"[1]; 0.2 mg/kg, in 220 ml 5% dextrose, 60-min infusion, read-out: CL (converted)",167 mL/min
same,Cmax,"[1]; 0.2 mg/kg, in 220 ml 5% dextrose, 60-min infusion, read-out: Cmax",640 ng/mL
same,half-life,"[1]; 0.2 mg/kg, in 220 ml 5% dextrose, 60-min infusion, read-out: T1/2 (converted)",2.66 h
same,Vd,"[1]; 0.2 mg/kg, in 220 ml 5% dextrose, 60-min infusion, read-out: Vz",38.8 L
same,AUC(0-t),[1]; [11],1400 ng·h/mL
same,Tmax,[1]; [11],1 h
same,AUC(0-inf),"[1]; 0.2 mg/kg, with pre-treatment of antihistamine (clemastine), read-out: AUC0-inf",1430 ng·h/mL
same,clearance,"[1]; 0.2 mg/kg, with pre-treatment of antihistamine (clemastine), read-out: CL (converted)",170 mL/min
same,Cmax,"[1]; 0.2 mg/kg, with pre-treatment of antihistamine (clemastine), read-out: Cmax",765 ng/mL
same,half-life,"[1]; 0.2 mg/kg, with pre-treatment of antihistamine (clemastine), read-out: T1/2 (converted)",2.4 h
same,Vd,"[1]; 0.2 mg/kg, with pre-treatment of antihistamine (clemastine), read-out: Vz",36 L
same,clearance,"[1]; 0.025 to 0.2 mg/kg, read-out: clearance over the dose range",167 to 483 mL/min
same,half-life,"[1]; 0.025 to 0.2 mg/kg, read-out: half-life values range",0.4 to 2.7 h
same,Vd,[1]; read-out: mean volume of distribution (Vz),17.1 ± 5.99 L
same,AUC(0-t),[2]; [12],362 ng·h/mL
same,C0,[2]; [12],4360 ng/mL
same,AUC(0-t),[2]; [13],17600 ng·h/mL
same,C0,[2]; [13],61500 ng/mL
same,AUC(0-t),[2]; [14],44000 ng·h/mL
same,C0,[2]; [14],109000 ng/mL
same,AUC(0-t),[2]; [15],397 ng·h/mL
same,C0,[2]; [15],3790 ng/mL
same,AUC(0-t),[2]; [16],16800 ng·h/mL
same,C0,[2]; [16],58500 ng/mL
same,AUC(0-t),[2]; [17],42100 ng·h/mL
same,C0,[2]; [17],107000 ng/mL
same,DN AUClast,[2]; [12],0.402 (μg · h/mL)/(mg/kg)
same,DN AUClast,[2]; [13],1.89 (μg · h/mL)/(mg/kg)
same,DN AUClast,[2]; [14],3.17 (μg · h/mL)/(mg/kg)
same,DN AUClast,[2]; [15],0.442 (μg · h/mL)/(mg/kg)
same,DN AUClast,[2]; [16],1.81 (μg · h/mL)/(mg/kg)
same,DN AUClast,[2]; [17],3.03 (μg · h/mL)/(mg/kg)
same,Estimated systemic exposure relative to human exposure at 0.025 mg/kg (AUC comparison),[3]; rat,158 times
same,maternal toxicity and embryo-fetal development toxicity,"[3]; rats, 0.015, 0.15, 1.5 mg/kg/day IV",No significant drug-related maternal toxicity and embryo-fetal development toxicity
same,No-Observed-Adverse-Effect-Level,"[3]; rats, IV, GD6 to GD17",1.5 mg/kg/day
same,Estimated systemic exposure relative to human exposure at 0.025 mg/kg (AUC comparison),[4]; rabbit,570 times
same,maternal toxicity and embryo-fetal development toxicity,"[4]; rabbits, 0.3, 1, 3 mg/kg/day IV",No significant drug-related maternal toxicity and embryo-fetal development toxicity
same,No-Observed-Adverse-Effect-Level,"[4]; rabbits, IV, GD7 to GD20",3 mg/kg/day
